Measured values: article PMC13625682, “Inhibitor fluorination pattern modulates protein surface dynamics and chemically induced dimerization” (Chemical Science, 2026)
Read-outs that look alike come from different tables or passages of the source.

Columns and labels:
Tpx [1] = tested on: T1, Tpx; test: SEC-MALS of Tpx/inhibitor complexes; format: binding, Trypanosoma brucei; settings: for SEC-MALS Mw of Tpx/inhibitor complex: 100 µM analyte, value ± measurement error
T1 construct: with residue G1 and end with N144; GAMG (TEV-cleavage scar that replaces Met1); Trx-His6 (thioredoxin fusion with His6 tag) (N, cleaved yes); made in house; host or cells: E. coli BL21-Gold(DE3)
Procedure: Size Exclusion Chromatography Coupled To Multi-Angle Light Scattering (SEC-MALS) To determine the oligomeric state of Tpx/inhibitor complexes by SEC-MALS, 100 µM of purified Tpx/inhibitor complexes were applied to a SEC column (Superdex75 10/300, GE Healthcare) in Tpx buffer (25 mM NaPi pH 7.5, 150 mM NaCl) at a flow rate of 0.5 ml/min at room temperature. The molecular weights of the eluting proteins were measured using a Dawn Heleos 8+ light scattering detector and an Optilab T-rEX refractive index detector (Wyatt Technologies). Data were analyzed with […]

Tpx WT = target: T2, Tpx WT (Trypanosoma brucei brucei, UniProt O77404); test: Dilution ITC of covalent Tpx/inhibitor complexes (dimer dissociation); format: binding; settings: according to dimer KD
T2 construct: with residue G1 and end with N144; GAMG (TEV-cleavage scar that replaces Met1); Trx-His6 (thioredoxin fusion with His6 tag) (N, cleaved yes); made in house; host or cells: E. coli BL21-Gold(DE3)
T2 sequence (O77404 with tags, fused parts or gaps limits assumed): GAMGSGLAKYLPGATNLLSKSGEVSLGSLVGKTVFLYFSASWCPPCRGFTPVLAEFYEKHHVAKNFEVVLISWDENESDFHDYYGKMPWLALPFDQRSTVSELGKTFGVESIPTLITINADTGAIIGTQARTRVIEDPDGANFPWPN
Procedure: Isothermal Titration Calorimetry (ITC)
Dissociation coefficients (K D) of dimeric Tpx/inhibitor complexes were determined via dilution ITC following our previously established protocol. 4 Purified complexes in Tpx buffer were titrated to Tpx buffer, and the heat signals of each injection was recorded. To observe dimer dissociation, measurements were conducted with 78 µM (Tpx/para-CFT), 122 µM (Tpx/meta-CFT), 277 µM (Tpx/ortho-CFT), 821 µM (Tpx/CtFT), and 176 µM (Tpx/CPT). A MicroCal PEAQ-ITC Automated […]
1, 3 and 5. After the initial wait time of 2 min, 19 serial injections of 2 μL with a spacing of 3 min where performed. The reference power was set to 11 μcal sec-1 and stirring speed to 750 rpm. A MicroCal PEAQ-ITC (Malvern Panalytical) with the same experimental setup was used to determine the KD value of covalent Tpx WT complexes with meta-CFT (2, 10 injections), and CtFT (4, 20 injections). Each titration was performed in a technical triplicate, and controls included water to water and unmodified Tpx to buffer titrations. Transferability between instruments was checked by repeating the Tpx/para -CFT […]
titration. […]

HEK293 cells = test: HEK293 cell survival assay (resazurin); format: cell-based; settings: Homo sapiens; HEK293, 24 h incubation
Procedure: Trypanosome and HEK293 Cell Survival Assays […]
(§1) 1-5 in human embryonic kidney (HEK293) was determined with a resazurin assay, which is based on the reduction of resazurin to fluorescent resorufin by living cells.6 HEK293 cells were maintained in DMEM high glucose supplemented with 10% FBS, 1% penicillin/streptomycin and 1% L-glutamine at 37 °C and 5% CO2. For the toxicity screen, 40000 cells per well were seeded in a 48 well plate (400 µL medium/well) and incubated at 37 °C for 24 hours before treatment with inhibitors 1-5. Cells were treated with 0.1 µM, 0.3 µM, 0.7 µM, 1 µM, 3 µM, 7 µM, 10 µM, 30 µM, 70 µM and 100 µM of the respective inhibitor, DMSO treatment served as negative control. The overall DMSO concentration was kept at 1 vol.% DMSO per well. After 24 hours of treatment, the medium was exchanged with a medium/resazurin mixture (0.015 mg/mL resazurin per well) and the cells were incubated for 3 h at 37 °C before transferring 100 µl medium from each well into a black opaque-walled 96-well plate. Fluorescence was directly measured using a CLARIOstar Plus reader (BMG Labtech GmbH, Ortenberg, Germany) with a 545-20 nm excitation / 600-40 nm emission filter. Each experiment was done in biological quadruplets and cell viability was analyzed in comparison to the DMSO control by plotting relative fluorescence units (RFU) against inhibitor concentration (Prism, Graphpad). A fifty percent decrease in relative fluorescence indicated the compound concentration where half of the HEK293 cells had died, which […]
(§2) In Vitro Tpx Activity Assay and Inactivation Kinetics
(§3) To reconstitute the peroxide clearance cascade (PCC), its components (at final concentrations of 360 µM NADPH, 0.1 U/mL TR, 110 µM TS2, 5 µM Tpx, 180 nM Px, 100 µM H2O2) were mixed in a total volume of 200 µL in a 10 mm quartz cuvette. First, 15 µL NADPH (4.8 mM in TR buffer (40 mM HEPES pH 7.5, 1 mM Na-EDTA), 10 µL TR (2 U/mL in TR buffer), 10 µL TS2 (2.2 mM in sterile filtered, deionized

[2] = tested on: T. brucei brucei 449 Lister 427 parasites; test: Trypanosome cell survival assay (ATPlite luminescence); format: cell-based, Trypanosoma brucei brucei; settings: for Selectivity index (24 h), EC50 HEK293 cells divided by EC50 T. brucei: HEK293 vs T. brucei brucei 449, 24 h; for EC50: Trypanosoma brucei
Procedure: Trypanosome and HEK293 Cell Survival Assays
Half maximal effective concentration (EC50) values of compounds 1- 5 against T. brucei brucei 449 Lister 427 parasites were determined with an ATPlite Luminescence assay as described previously.4,5 The EC50 was defined as the compound concentration at which a fifty percent decrease in relative […]
as §1, §2, §3

Tpx [3] = tested on: T1, Tpx; test: In vitro Tpx activity assay: reconstituted peroxide clearance cascade, NADPH consumption followed photometrically; format: biochemical, Trypanosoma brucei; settings: for second-order rate constant k2nd of irreversible Tpx inhibition: 5 µM Tpx, 25 °C, slope of kobs vs inhibitor concentration; for speed of Tpx inactivation: Tpx-equimolar concentrations (5 µM)
Tryparedoxin = target: T3, Tryparedoxin (Trypanosoma brucei, UniProt O77404); test: dilution ITC
T3 chain: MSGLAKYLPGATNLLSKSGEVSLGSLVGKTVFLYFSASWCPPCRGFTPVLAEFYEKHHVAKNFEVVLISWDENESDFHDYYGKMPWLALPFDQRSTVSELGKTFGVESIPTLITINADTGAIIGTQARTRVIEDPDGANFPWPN

[4] = bloodstream form T. brucei brucei 449, 24 h incubation, read-out: EC50 (24 h)
[5] = bloodstream form T. brucei brucei 449, 48 h incubation, read-out: EC50 (48 h)

O=c1[nH]c(CCl)nc2scc(-c3ccc(F)cc3)c12 [para-CFT, 2-(chloromethyl)-5-(4-fluorophenyl)-thieno[2,3-d]pyrimidin-4(3H)-one]
SEC-MALS Mw of Tpx/inhibitor complex (Tpx [1]): 21.3 ± 1.1 kDa | portion of Tpx WT/inhibitor complex dimeric (Tpx WT; 100 µM analyte): 85% | EC50 (HEK293 cells): 3900 ± 400 nM | Selectivity index (24 h), EC50 HEK293 cells divided by EC50 T. brucei [2]: 3.0 ± 0.8 | EC50 [2, 4]: 1300 ± 300 nM | EC50 [2, 5]: 1500 ± 300 nM

O=c1[nH]c(CCl)nc2scc(-c3ccccc3)c12 [CPT, 2-(chloromethyl)-5-phenylthieno[2,3-d]pyrimidin-4(3H)-one]
SEC-MALS Mw of Tpx/inhibitor complex (Tpx [1]): 19.5 ± 0.6 kDa | EC50 (HEK293 cells): 4900 ± 600 nM | Selectivity index (24 h), EC50 HEK293 cells divided by EC50 T. brucei [2]: 8.2 ± 4.2 | EC50 [2, 4]: 600 ± 300 nM | EC50 [2, 5]: 1400 ± 400 nM

O=c1[nH]c(CCl)nc2scc(-c3cccc(F)c3)c12 [meta-CFT, 2-(chloromethyl)-5-(3-fluorophenyl)thieno[2,3-d]pyrimidin-4(3H)-one]
SEC-MALS Mw of Tpx/inhibitor complex (Tpx [1]): 23.6 ± 0.9 kDa | second-order rate constant k2nd of irreversible Tpx inhibition (Tpx [3]): 933 ± 17 M⁻¹ s⁻¹ | speed of Tpx inactivation (Tpx [3]): slowest | EC50 (HEK293 cells): 6500 ± 500 nM | Selectivity index (24 h), EC50 HEK293 cells divided by EC50 T. brucei [2]: 5.0 ± 1.6 | EC50 [2, 4]: 1300 ± 400 nM | EC50 [2, 5]: 1100 ± 500 nM

O=c1[nH]c(CCl)nc2scc(-c3ccc(C(F)(F)F)cc3)c12 [CtFT, 2-(chloromethyl)-5-(4-(trifluoromethyl)phenyl)thieno[2,3-d]pyrimidin-4(3H)-one]
oligomeric state of inhibitor-bound Tpx by SEC-MALS (Tpx [1]; 100 µM analyte concentration): remained monomeric | SEC-MALS Mw of Tpx/inhibitor complex (Tpx [1]): 16.6 ± 0.7 kDa | second-order rate constant k2nd of irreversible Tpx inhibition (Tpx [3]): 1870 ± 17 M⁻¹ s⁻¹ | speed of Tpx inactivation (Tpx [3]): fastest | EC50 (HEK293 cells): 3900 ± 300 nM | Selectivity index (24 h), EC50 HEK293 cells divided by EC50 T. brucei [2]: 1.8 ± 0.5 | EC50 [2, 4]: 2200 ± 600 nM | EC50 [2, 5]: 2500 ± 600 nM

O=c1[nH]c(CCl)nc2scc(-c3ccccc3F)c12 [ortho-CFT, 2-(chloromethyl)-5-(2-fluorophenyl)thieno[2,3-d]-pyrimidin-4(3H)-one]
SEC-MALS Mw of Tpx/inhibitor complex (Tpx [1]): 17.5 ± 0.9 kDa | portion of Tpx WT/inhibitor complex dimeric (Tpx WT; 750 µM analyte): 87% | speed of Tpx inactivation (Tpx [3]): fastest | EC50 (HEK293 cells): 5000 ± 600 nM | Selectivity index (24 h), EC50 HEK293 cells divided by EC50 T. brucei [2]: 5.0 ± 1.6 | EC50 [2, 4]: 1000 ± 300 nM | EC50 [2, 5]: 800 ± 300 nM

B1: Tryparedoxin (protein)
chain: MSGLAKYLPGATNLLSKSGEVSLGSLVGKTVFLYFSASWCPPCRGFTPVLAEFYEKHHVAKNFEVVLISWDENESDFHDYYGKMPWLALPFDQRSTVSELGKTFGVESIPTLITINADTGAIIGTQARTRVIEDPDGANFPWPN
modifications: meta-CFT covalently bound at C40
Kd (Tryparedoxin): 3700 nM

B2: Tryparedoxin (protein)
chain: MSGLAKYLPGATNLLSKSGEVSLGSLVGKTVFLYFSASWCPPCRGFTPVLAEFYEKHHVAKNFEVVLISWDENESDFHDYYGKMPWLALPFDQRSTVSELGKTFGVESIPTLITINADTGAIIGTQARTRVIEDPDGANFPWPN
modifications: CtFT covalently bound at C40
Kd (Tryparedoxin): 410000 nM
